Source: US20100227921A1, “AMINO ACID AND PEPTIDE CARBAMATE PRODRUGS OF […] USES THEREOF” (SHIRE LLC, priority 2009, published 2010)
“And” between values parts separate entries of the source, which are not always exact repeats. Equal entries are not always repeated. Where two headings read alike, the source gives them in different places. Marks after values point to notes of the source that are not given here.

Experiment: Comparative bioavailability after oral or intravenous administration to monkeys (plasma LC-MS-MS)
Assay type: in vivo, cynomolgus monkey
Settings: for half-life: read-out: t½ of tapentadol valine carbamate (converted); for AUC(0-t): read-out: AUCt of tapentadol valine carbamate; for clearance: read-out: CL of tapentadol valine carbamate (converted); for Vd: read-out: Vss of tapentadol valine carbamate; for Tmax: cynomolgus
Description: Test substances i.e., tapentadol and tapentadol valine carbamate were administered (either intravenously or orally) to a group of five male cynomolgus monkeys in a three way crossover design. The oral doses were given at 1 mg tapentadol base equivalents/kg while the intravenous dose was 0.5 mg/kg
Blood samples were taken at various times after administration and submitted to analysis for the parent drug and tapentadol valine carbamate using a validated LC-MS-MS assay. Pharmacokinetic parameters derived from the plasma analytical data were determined using Win Nonlin.

[1] = male monkey, i.v. tapentadol valine carbamate 0.5 mg tapentadol free base equiv/kg, individual animals 1-5
[2] = male monkey, oral tapentadol valine carbamate 1 mg tapentadol free base equiv/kg, individual animals 1-5
[3] = male, cynomolgus monkey, plasma, iv, 0.5 mg/kg, male monkey, i.v. tapentadol valine carbamate 0.5 mg tapentadol free base equiv/kg, individual animals 1-5
[4] = male, cynomolgus monkey, plasma, iv, 0.5 mg/kg, male monkey, i.v. tapentadol valine carbamate 0.5 mg tapentadol free base equiv/kg, mean
[5] = male, cynomolgus monkey, plasma, po, 1 mg tapentadol free base equiv/kg, male monkey, oral tapentadol valine carbamate 1 mg tapentadol free base equiv/kg, individual animals 1-5
[6] = male, cynomolgus monkey, plasma, po, 1 mg tapentadol free base equiv/kg, male monkey, oral tapentadol valine carbamate 1 mg tapentadol free base equiv/kg, mean

SMILES: CC[C@H](c1cccc(OC(=O)N[C@H](C(=O)O)C(C)C)c1)[C@H](C)CN(C)C (racemic) [Tapentadol valine carbamate, 2-[3-(3-Dimethylamino-1-ethyl-2-methyl-propyl)-phenoxycarbonylamino]-3-methyl-butyric acid]
- Plasma concentration of tapentadol valine carbamate (male monkey, i.v. tapentadol valine carbamate 0.5 mg tapentadol free base equiv/kg, 0.25 h, individual animals 1-5): 825 ng/mL and 848 ng/mL and 427 ng/mL and 672 ng/mL
- Plasma concentration of tapentadol valine carbamate (male monkey, i.v. tapentadol valine carbamate 0.5 mg tapentadol free base equiv/kg, 0.5 h, individual animals 1-5): 119.8 ng/mL and 576 ng/mL and 620 ng/mL and 609 ng/mL and 430 ng/mL
- Plasma concentration of tapentadol valine carbamate (male monkey, i.v. tapentadol valine carbamate 0.5 mg tapentadol free base equiv/kg, 1 h, individual animals 1-5): 205 ng/mL and 326 ng/mL and 274 ng/mL and 251 ng/mL
- Plasma concentration of tapentadol valine carbamate (male monkey, i.v. tapentadol valine carbamate 0.5 mg tapentadol free base equiv/kg, 2 h, individual animals 1-5): 112.1 ng/mL and 115.5 ng/mL and 85.6 ng/mL and 87.7 ng/mL
- Plasma concentration of tapentadol valine carbamate (male monkey, i.v. tapentadol valine carbamate 0.5 mg tapentadol free base equiv/kg, 4 h, individual animals 1-5): 20.0 ng/mL and 21.4 ng/mL and 12.2 ng/mL and 14.6 ng/mL
- Plasma concentration of tapentadol valine carbamate (male monkey, i.v. tapentadol valine carbamate 0.5 mg tapentadol free base equiv/kg, 6 h, individual animals 1-5): 4.94 ng/mL and 6.10 ng/mL and 3.48 ng/mL and 4.20 ng/mL
- Plasma concentration of tapentadol valine carbamate (male monkey, i.v. tapentadol valine carbamate 0.5 mg tapentadol free base equiv/kg, 9 h, individual animals 1-5): 1.04 ng/mL and 0.769 ng/mL and 1.89 ng/mL and 1.20 ng/mL and 1.35 ng/mL
- AUC of tapentadol valine carbamate [1]: 926 ng·h/mL and 1050 ng·h/mL and 915 ng·h/mL and 846 ng·h/mL
- AUCt of tapentadol valine carbamate [1]: 925 ng·h/mL and 1040 ng·h/mL and 912 ng·h/mL and 843 ng·h/mL
- C0 of tapentadol valine carbamate [1]: 794 ng/mL and 1020 ng/mL and 949 ng/mL and 1930 ng/mL and 1260 ng/mL
- CL of tapentadol valine carbamate [1]: 9 mL/min/kg and 7.97 mL/min/kg and 9.12 mL/min/kg and 8.18 mL/min/kg
- Vss of tapentadol valine carbamate [1]: 0.529 L/kg and 0.499 L/kg and 0.481 L/kg and 0.562 L/kg
- t½ of tapentadol valine carbamate [1]: 1.1 h
- AUC of tapentadol valine carbamate [2]: 219 ng·h/mL and 367 ng·h/mL and 368 ng·h/mL and 48 ng·h/mL and 436 ng·h/mL
- AUCt of tapentadol valine carbamate [2]: 216 ng·h/mL and 351 ng·h/mL and 358 ng·h/mL and 187 ng·h/mL and 432 ng·h/mL
- Cmax of tapentadol valine carbamate [2]: 150 ng/mL and 176 ng/mL and 153 ng/mL and 92.1 ng/mL and 249 ng/mL
- T>50%Cmax of tapentadol valine carbamate [2]: 0.5 h (4×) and 1 h
- t½ of tapentadol valine carbamate [2]: 3.35 h and 2.48 h and 1.86 h and 2.88 h
- T>50%Cmax of tapentadol valine carbamate (male monkey, oral tapentadol valine carbamate 1 mg tapentadol free base equiv/kg, median): 0.5^a h
- Plasma concentration of tapentadol valine carbamate (male monkey, oral tapentadol valine carbamate 10 mg tapentadol free base equiv/kg, 0.5 h, individual animals 1-5): 150 ng/mL and 176 ng/mL and 153 ng/mL and 34.7 ng/mL and 249 ng/mL
- Plasma concentration of tapentadol valine carbamate (male monkey, oral tapentadol valine carbamate 10 mg tapentadol free base equiv/kg, 0.5 h, mean): 153 ng/mL
- Plasma concentration of tapentadol valine carbamate (male monkey, oral tapentadol valine carbamate 10 mg tapentadol free base equiv/kg, 1 h, individual animals 1-5): 96.1 ng/mL and 126 ng/mL and 127 ng/mL and 92.1 ng/mL and 227 ng/mL
- Plasma concentration of tapentadol valine carbamate (male monkey, oral tapentadol valine carbamate 10 mg tapentadol free base equiv/kg, 1 h, mean): 134 ng/mL
- Plasma concentration of tapentadol valine carbamate (male monkey, oral tapentadol valine carbamate 10 mg tapentadol free base equiv/kg, 2 h, individual animals 1-5): 31.8 ng/mL and 71.3 ng/mL and 58.9 ng/mL and 49.4 ng/mL and 87.9 ng/mL
- Plasma concentration of tapentadol valine carbamate (male monkey, oral tapentadol valine carbamate 10 mg tapentadol free base equiv/kg, 2 h, mean): 59.9 ng/mL
- Plasma concentration of tapentadol valine carbamate (male monkey, oral tapentadol valine carbamate 10 mg tapentadol free base equiv/kg, 3 h, individual animals 1-5): 10.7 ng/mL and 23.1 ng/mL and 25.2 ng/mL and 16.4 ng/mL and 22.1 ng/mL
- Plasma concentration of tapentadol valine carbamate (male monkey, oral tapentadol valine carbamate 10 mg tapentadol free base equiv/kg, 3 h, mean): 19.5 ng/mL
- Plasma concentration of tapentadol valine carbamate (male monkey, oral tapentadol valine carbamate 10 mg tapentadol free base equiv/kg, 4 h, individual animals 1-5): 5.49 ng/mL and 15.1 ng/mL and 25.7 ng/mL and 12.7 ng/mL and 6.89 ng/mL
- Plasma concentration of tapentadol valine carbamate (male monkey, oral tapentadol valine carbamate 10 mg tapentadol free base equiv/kg, 4 h, mean): 13.2 ng/mL
- Plasma concentration of tapentadol valine carbamate (male monkey, oral tapentadol valine carbamate 10 mg tapentadol free base equiv/kg, 6 h, individual animals 1-5): 4.60 ng/mL and 10.0 ng/mL and 17.0 ng/mL and 4.51 ng/mL and 3.93 ng/mL
- Plasma concentration of tapentadol valine carbamate (male monkey, oral tapentadol valine carbamate 10 mg tapentadol free base equiv/kg, 6 h, mean): 8.01 ng/mL
- Plasma concentration of tapentadol valine carbamate (male monkey, oral tapentadol valine carbamate 10 mg tapentadol free base equiv/kg, 9 h, individual animals 1-5): 1.93 ng/mL and 7.34 ng/mL and 5.61 ng/mL and 1.11 ng/mL and 1.86 ng/mL
- Plasma concentration of tapentadol valine carbamate (male monkey, oral tapentadol valine carbamate 10 mg tapentadol free base equiv/kg, 9 h, mean): 3.57 ng/mL
- Plasma concentration of tapentadol valine carbamate (male monkey, oral tapentadol valine carbamate 10 mg tapentadol free base equiv/kg, 12 h, individual animals 1-5): 0.741 ng/mL and 2.97 ng/mL and 3.04 ng/mL and 0.716 ng/mL and 0.929 ng/mL
- Plasma concentration of tapentadol valine carbamate (male monkey, oral tapentadol valine carbamate 10 mg tapentadol free base equiv/kg, 12 h, mean): 1.68 ng/mL
- concentration at 0.083 h (male, cynomolgus monkey, plasma, iv, 0.5 mg tapentadol free base equiv/kg, male monkey, i.v. tapentadol valine carbamate 0.5 mg tapentadol free base equiv/kg, 0.083 h, mean): 969 ng/mL
- concentration at 0.25 h (male, cynomolgus monkey, plasma, iv, 0.5 mg tapentadol free base equiv/kg, male monkey, i.v. tapentadol valine carbamate 0.5 mg tapentadol free base equiv/kg, 0.25 h, mean): 711 ng/mL
- concentration at 0.5 h (male, cynomolgus monkey, plasma, iv, 0.5 mg tapentadol free base equiv/kg, male monkey, i.v. tapentadol valine carbamate 0.5 mg tapentadol free base equiv/kg, 0.5 h, mean): 471 ng/mL
- concentration at 1 h (male, cynomolgus monkey, plasma, iv, 0.5 mg tapentadol free base equiv/kg, male monkey, i.v. tapentadol valine carbamate 0.5 mg tapentadol free base equiv/kg, 1 h, mean): 255 ng/mL
- concentration at 2 h (male, cynomolgus monkey, plasma, iv, 0.5 mg tapentadol free base equiv/kg, male monkey, i.v. tapentadol valine carbamate 0.5 mg tapentadol free base equiv/kg, 2 h, mean): 98.6 ng/mL
- concentration at 4 h (male, cynomolgus monkey, plasma, iv, 0.5 mg tapentadol free base equiv/kg, male monkey, i.v. tapentadol valine carbamate 0.5 mg tapentadol free base equiv/kg, 4 h, mean): 16 ng/mL
- concentration at 6 h (male, cynomolgus monkey, plasma, iv, 0.5 mg tapentadol free base equiv/kg, male monkey, i.v. tapentadol valine carbamate 0.5 mg tapentadol free base equiv/kg, 6 h, mean): 4.39 ng/mL
- concentration at 9 h (male, cynomolgus monkey, plasma, iv, 0.5 mg tapentadol free base equiv/kg, male monkey, i.v. tapentadol valine carbamate 0.5 mg tapentadol free base equiv/kg, 9 h, mean): 1.25 ng/mL
- half-life (male, cynomolgus monkey, plasma, iv, 0.5 mg/kg, male monkey, i.v. tapentadol valine carbamate 0.5 mg tapentadol free base equiv/kg, calculated as ln2/mean k): 1.4 h
- AUC [3]: 680 ng·h/mL
- AUC(0-t) [3]: 678 ng·h/mL
- clearance [3]: 12.2 mL/min/kg
- Vd [3]: 0.75 L/kg
- half-life [3]: 1.5 h
- AUC [4]: 883 ng·h/mL
- C0 [4]: 1190 ng/mL
- AUC(0-t) [4]: 880 ng·h/mL
- clearance [4]: 9.63 mL/min/kg
- Vd [4]: 0.564 L/kg
- half-life (male, cynomolgus monkey, plasma, po, 1 mg tapentadol free base equiv/kg, male monkey, oral tapentadol valine carbamate 1 mg tapentadol free base equiv/kg, calculated as ln2/mean k): 2.47 h
- half-life [5]: 2.28 h
- AUC [6]: 316 ng·h/mL
- Cmax [6]: 164 ng/mL
- AUC(0-t) [6]: 309 ng·h/mL
- Tmax [5]: 0.5 h
- Tmax (male, cynomolgus monkey, plasma, po, 1 mg tapentadol free base equiv/kg, male monkey, oral tapentadol valine carbamate 1 mg tapentadol free base equiv/kg, median): 0.5 h
- prodrug absorbed after oral administration (monkey, comparison of AUC after oral (Table 13) and intravenous dosing (Table 12)): at least 36%
